Counter-ions that a name gives are not always drawn.
Key:
LSK cells = assay: Colony assay of Lin−Sca1+c-Kit+ (LSK) cells from wildtype mice; format: cell-based
Protocol: FIG. 5A-5F. PU.1 inhibitors decrease the granulo-monocytic potential of hematopoietic stem and progenitor cells, which is rapidly reversible. (A-C) Lin-Sca1+c-Kit+(LSK) cells were plated in semi-solid media containing PU.1 inhibitors. (A) Number of colony-forming unit granulocyte (CFU-G), monocyte (CFU-M), granulo/monocyte (CFU-GM), granulo/erythrocyte/monocyte/megakaryocyte (CFU-GEMM), burst or colony forming unit erythroid (B/CFU-E) and immature colonies after treatment. Detailed histograms of CFU-GM, CFU-G and CFU-M numbers are shown. Data represent the means±SD of 3 independent experiments. (B) Cells coming from colony assays after vehicle or DB2313 treatment. Cells were cytospun and stained with May-Grünwald Giemsa. Scale bar is equal to 20 μm. (C) FACS analysis showing the percentage of CD11b+Gr1−, CD11b+Gr1+, CD11b−Gr1+, CD41+Ter119−, CD41+Ter119+, CD41−Ter119+ populations after colony assays. Data represent the means±SD of 4 independent experiments. (D,E) Cells coming from colony assays treated with DB2313 were replated in the presence (+DB2313) or in the absence of DB2313 (−DB2313) and the percentage of CD11b+Gr1−, CD11b+Gr1+ cells was assessed one week later after culture in semi-solid media. (D) Representative FACS plots (E) Percentage of CD11b+Gr1− and CD11b+Gr1+ populations. Data represent the means±SD of 3 independent experiments; fold change compared to replating with DB2313 is shown. (F) Serial replating assay with D2313 continuous treatment (n=3). Data represent the means±SD of technical triplicate from one representative experiment. *P<0.05, **P<0.01, ***P<0.001,
In order to determine the effect of our PU.1 inhibitors on normal hematopoietic differentiation, we sorted immature Lin^−Sca1^+c-Kit^+ (LSK) cells from wildtype mice and studied their clonogenic potential following treatment with either DB1976, DB2115, or DB2313. […] Overall, the numbers of viable cells per colony were reduced upon PU.1 inhibitor treatment, again consistent with an effect of PU.1 inhibition on more mature, differentiating cells. […]

[1] = system: PU.1 targets Csf1r, Junb, PU.1, E2f1; assay: Quantitative RT-PCR of PU.1 target transcripts in PU.1 URE−/− AML cells; format: cell-based, murine
Protocol: FIG. 3A-3G. Novel inhibitors show on-target PU.1 inhibitory activity. (A) Quantitative RT-PCR analysis of Csf1r, Junb, Sfpi1, E2f1 expression after 72 h (n=6) and, for Csf1r, after 1 h (n=3), 4 h (n=7), 8 h (n=3) and 24 h (n=3) of treatment with the small molecules in URE−/− cells, expression is normalized to GAPDH expression. Data represent means±SD of technical triplicate from one representative experiment; fold change compared to Vehicle is shown. (B) Chromatin immunoprecipitation assay showing PU.1 occupancy on E2f1, Junb, Csf1r promoters after treatment in Umsh cell line (n=5). 10·10^6 cells were collected for each condition after 8 h treatment with a double dose of the small molecules (50 uM for DB1976, 1.4 uM for DB2115 and 660 nM for DB2313) or Vehicle; and processed for ChIP using PU.1 monoclonal antibody. Myogenin was used as a negative control, not regulated by PU.1. Data represent means±SD of technical triplicate from one representative experiment. (C) Cell viability after PU.1 rescue in MOLM13 cells. MOLM13 were transduced with a lentiviral construct expressing either PU.1-GFP (PU.1, black bar) or GFP as a control (empty, white bar), sorted on GFP and plated with DB1976 (n=7), DB2115 (n=8), DB2313 (n=6) or Vehicle. Cell count was performed after 4 days. Data represent means±SD of technical triplicate from one representative experiment; fold change compared to Vehicle is shown. (D-G) Transcriptome analysis of URE−/− cells after 24 h of treatment with DB2313 versus vehicle (n=3). Differentially expressed genes were determined with a fold change at 1.2 and a P value <0.1. (D) Enrichment in genes directly regulated by PU.1 or in genes regulated by the other ETS transcription factors Ets1, Gabpa, Spi-B, Fli-1, using Ingenuity Knowledge Base. The red dotted line represents the significance threshold (−log (P value)>1.3). (E,F) Comparison analysis of deregulated genes in URE−/− cells after DB2313 treatment and in PUER cells after PU.1 induction (GSE13125). Deregulated gens in PUER cells were analyzed with a FC at 1.5 and P-value <0.05. (E) Significant overlap between the 2 datasets, with 484 genes commonly deregulated. P-value was calculated using the hypergeometric test. (F) Comparative analysis of deregulated canonical pathways between the 2 datasets (z-score >2 for PUER dataset). Colored squares indicate activation z-score. (G) Enrichment of PU.1 binding at promoters of all, up- and down-deregulated genes after DB2313 treatment. […]
To assess on-target activity of our inhibitors in AML cells, we measured transcript levels of well-known PU.1 targets in PU.1 URE^−/− AML cells. […] As Csf1r is one of the most sensitive PU.1 targets in myeloid cells, we assessed its expression at different time points (1 h, 4 h, 8 h and 24 h) after drug treatment. […]

[2] = second plating, vs replating with compound

## N=C(N)c1ccc2nc(-c3ccc(-c4nc5ccc(C(=N)N)cc5[nH]4)[se]3)[nH]c2c1 [DB1976]
LSK cells; majority of colonies unidentifiable, majority of dead cells
  toxicity on LSK cells: appeared to show toxicity

## CC(C)NC(=N)c1ccc2nc(-c3ccc(OCc4cccc(COc5ccc(-c6nc7ccc(C(=N)NC(C)C)cc7[nH]6)cc5)c4F)cc3)[nH]c2c1 [DB2313, 3-Bis{4[4(5)-N-isopropylamidinobenzimidazolyl]phenoxymethyl]}-2-fluorobenzene tetrahydrochloride]
[1]
  Csf1r, Junb, and PU.1 transcript expression: decrease
  E2f1 expression: increase
LSK cells; [2]
  increase of production of mature granulocytes after removing the treatment: 4 fold
  increase of production of mature monocytes after removing the treatment: 22 fold

## N=C(N)c1ccc2nc(-c3ccc(OCCCCOc4ccc(-c5nc6ccc(C(=N)N)cc6[nH]5)cc4)cc3)[nH]c2c1 [DB2115]
[1]
  Csf1r, Junb, and PU.1 transcript expression: decrease
  E2f1 expression: increase
